Where a SMILES comes first, the peptide text is derived from it.
Assays:
[1] = molecular target: collagenase I (MMP-1); test: Collagenase activity assay, collagen thin film (collagen type II substrate); assay type: biochemical; conditions: collagen thin film method, FIG. 2; read-out: IC50 (mean±SD), collagenase I (MMP-1)
Description: Collagenase activity was assayed by collagen thin film method using collagen type II as substrate. IC50 values were graphically determined from the inhibition curves, constructed on the basis of the in vitro results of collagenase assays. Results are the mean±SD of 3 separate experiments done in triplicates. (•), P-NT.II; (□), PIP [59-67] dimer; (Δ), PIP [59-67} monomer; (∇), LY 315920.
Collagenase activity assay: Using collagen thin film as the substrate, a quantitative method was established to measure the enzymatic activity of the MMPs (principally collagenase). Collagen type II (Sigma) solution (4 μL, 3 mg/mL in 0.012 N HCl) was added to each well of 96-well plates and precipitated by slowly increasing the pH with 4 μL of H2O and 8 μL of 0.012 N NaOH. The plate was dried at 23° C. for 24 hr, washed with H2O, and dried again at 23° C., resulting in a thin film containing 12 μg of collagen that was tightly bound to the bottom of the wells. Enzymatic reactions of the collagenase I (with and without peptide inhibitors) against the collagen films were carried out in quadruplicate at 24° C. for 16 h. The digested portion of the film was washed away, while the undigested portion was fixed for 3 h with 0.1% Coomassie brilliant blue R in 10% acetic acid and 45% methanol, and the wells washed and dried.

[2] = molecular target: T1, MMP-2 (Oryctolagus cuniculus, UniProt P50757); test: Gelatin zymography of HIG-82 culture supernatant pre-incubated with inhibitors (FIG. 4A); assay type: biochemical, rabbit; conditions: APMA-activated HIG-82 supernatant, 5 μM peptide, 1 h at 25° C.
T1 construct: endogenous in cells; host or cells: HIG-82 rabbit synoviocytes (ATCC CRL-1832), IL-1β-induced, culture supernatant
T1 sequence (P50757 110-662): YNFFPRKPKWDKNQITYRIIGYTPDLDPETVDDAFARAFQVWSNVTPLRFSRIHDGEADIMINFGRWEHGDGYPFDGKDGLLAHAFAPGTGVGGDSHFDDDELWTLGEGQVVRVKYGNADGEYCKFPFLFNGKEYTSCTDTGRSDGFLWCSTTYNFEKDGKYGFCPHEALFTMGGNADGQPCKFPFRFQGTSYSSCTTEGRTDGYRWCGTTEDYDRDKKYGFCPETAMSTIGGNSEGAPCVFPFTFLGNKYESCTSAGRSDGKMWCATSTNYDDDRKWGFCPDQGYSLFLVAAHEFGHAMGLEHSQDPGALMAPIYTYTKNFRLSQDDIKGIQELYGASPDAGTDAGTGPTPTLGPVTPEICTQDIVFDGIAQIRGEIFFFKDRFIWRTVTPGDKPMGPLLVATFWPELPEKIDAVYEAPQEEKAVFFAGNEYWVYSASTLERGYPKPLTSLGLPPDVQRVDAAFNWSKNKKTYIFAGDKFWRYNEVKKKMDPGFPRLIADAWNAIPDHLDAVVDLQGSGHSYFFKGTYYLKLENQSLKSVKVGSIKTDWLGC
Description: (§1) Gelatinase activity in the supernatants from cells induced with IL-1β (5 ng) for 48 h was analyzed by gelatin zymography. (A) Supernatants (activated with final 1 mM APMA at 30° C. for 30 min) were pre-incubated with various inhibitors. (5 μM peptides or 1-2 μM Calbiochem MMP inhibitor II) for 1 h at 25° C. prior to zymographic analyses—Lane 1, without activation (no inhibitor); Lane 2, with activation (no inhibitor); Lanes 3-8, with activation plus inhibitor: 3, P-NT-II; 4, PIP [59-67] monomer; 5, PIP [57-67] dimer; 6, PIP [59-67] dimer; 7 and 8, positive control MMP Inhibitor II (Calbiochem) at 1 and 2 μM concentrations. (B) Rabbit synovial fibroblasts were stimulated by IL-1β in the presence or absence of 1-10 μM of PIP [59-67] dimer for 48 h. Culture supernatants were concentrated by centrifugation (Centricon centrifugal filter devices, M.W. cutoff 30,000) and activated with APMA (1 mM final) before measurement of gelatinase activity by gelatin zymography. Lanes: 1 (−peptide−APMA); 2 (−peptide+APMA); 3 (+1 μM peptide+APMA); 4 (+5 μM peptide+APMA); 5 (+7.5 μM peptide+APMA); 6 (+10 μM peptide+APMA). […]

[3] = molecular target: T2, MMP-9 (Oryctolagus cuniculus, UniProt P41246); test: as above; assay type: biochemical, rabbit; conditions: APMA-activated HIG-82 supernatant, 5 μM peptide, 1 h at 25° C.
T2 construct: endogenous in cells; host or cells: HIG-82 rabbit synoviocytes (ATCC CRL-1832), IL-1β-induced, culture supernatant
T2 sequence (P41246 107-707): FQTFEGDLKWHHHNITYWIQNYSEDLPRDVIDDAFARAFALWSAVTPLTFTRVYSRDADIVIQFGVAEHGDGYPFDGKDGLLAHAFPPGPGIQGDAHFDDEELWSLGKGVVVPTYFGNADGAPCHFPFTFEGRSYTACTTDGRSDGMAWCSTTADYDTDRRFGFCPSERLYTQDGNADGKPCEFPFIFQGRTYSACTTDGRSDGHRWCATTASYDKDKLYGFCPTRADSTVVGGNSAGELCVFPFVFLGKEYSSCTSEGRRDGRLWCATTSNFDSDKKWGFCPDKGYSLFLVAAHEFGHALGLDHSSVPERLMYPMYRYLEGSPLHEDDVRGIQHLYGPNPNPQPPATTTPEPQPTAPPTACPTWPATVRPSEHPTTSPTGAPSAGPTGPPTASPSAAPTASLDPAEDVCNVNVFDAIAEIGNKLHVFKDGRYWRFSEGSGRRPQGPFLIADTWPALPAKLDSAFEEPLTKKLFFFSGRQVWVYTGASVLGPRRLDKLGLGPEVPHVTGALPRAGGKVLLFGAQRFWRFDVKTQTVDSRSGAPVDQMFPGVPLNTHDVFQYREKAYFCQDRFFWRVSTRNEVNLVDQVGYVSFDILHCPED
Description: as §1

[4] = molecular target: T3, secreted MMP-2 (Oryctolagus cuniculus, UniProt P50757); test: Secreted gelatinase activity of IL-1β-stimulated rabbit synovial fibroblasts treated with peptide (FIG. 4B); assay type: cell-based; conditions: cells treated with 1-10 μM peptide, IL-1β stimulation
T3 construct: endogenous in cells; host or cells: HIG-82 rabbit fibroblast-like synoviocytes (ATCC CRL-1832)
T3 sequence (P50757 110-662): T1 sequence (P50757 110-662)
Description: (§2) Gelatinase activity in the supernatants from cells induced with IL-1β (5 ng) for 48 h was analyzed by gelatin zymography. (A) Supernatants (activated with final 1 mM APMA at 30° C. for 30 min) were pre-incubated with various inhibitors. (5 μM peptides or 1-2 μM Calbiochem MMP inhibitor II) for 1 h at 25° C. prior to zymographic analyses—Lane 1, without activation (no inhibitor); Lane 2, with activation (no inhibitor); Lanes 3-8, with activation plus inhibitor: 3, P-NT-II; 4, PIP [59-67] monomer; 5, PIP [57-67] dimer; 6, PIP [59-67] dimer; 7 and 8, positive control MMP Inhibitor II (Calbiochem) at 1 and 2 μM concentrations. (B) Rabbit synovial fibroblasts were stimulated by IL-1β in the presence or absence of 1-10 μM of PIP [59-67] dimer for 48 h. Culture supernatants were concentrated by centrifugation (Centricon centrifugal filter devices, M.W. cutoff 30,000) and activated with APMA (1 mM final) before measurement of gelatinase activity by gelatin zymography. Lanes: 1 (−peptide−APMA); 2 (−peptide+APMA); 3 (+1 μM peptide+APMA); 4 (+5 μM peptide+APMA); 5 (+7.5 μM peptide+APMA); 6 (+10 μM peptide+APMA).
(§3) Gelatin zymography: human synovial fluid, purified human recombinant MMP-2 and -9 or APMA-activated concentrated culture supernatant samples (10 μL) was mixed (1:1) with Laemmli sample buffer, loaded on 4% acrylamide stacking gel and electrophoresed (120 V) at 4° C. on a 10% acrylamide-resolving minigel containing 0.1% gelatin. After electrophoresis for 1 h, the gels were soaked in 2.5% Triton X-100 on a shaker for 1 h, changing the solution after 30 min, to eliminate SDS. After overnight incubation in zymogen activation buffer [50 mM Tris-HCl, pH 7.5, containing 10 mM CaCl2 and 5 mM ZnCl2] at 37° C., the gels were rinsed in distilled water, and stained for 3 hr with […], after which clear bands of digested gelatin were clearly visible. The gels were briefly rinsed in distilled water and scanned by the Bio-Rad GS-710 Calibrated Imaging Densitometer.
(§4) FLSC culture and inhibition of extracellular MMP activity: All experiments were performed on HIG-82 rabbit fibroblast-like synoviocytes (FLSCs) obtained from American Type Culture Collection (Manassas, Va.; catalogue No. CRL-1832). FLSCs were grown in Ham's F-12 medium containing 10% fetal bovine serum (FBS) and 1% penicillin/streptomycin, as recommended by the supplier. For experimental purposes, FLSCs were seeded into 12-well plates, grown to near confluence, and then serum starved (Ham's F-12 without FBS or penicillin/streptomycin) for 16 h. […] After activation with APMA (1 mM final concentration), the samples were measured for MMP-1 activity using BIOMOL AK-404 QuantiZyme Assay system, and for MMP-2 and -9 activities by gelatin zymography.

[5] = molecular target: T4, secreted MMP-9 (Oryctolagus cuniculus, UniProt P41246); test: as above; assay type: cell-based; conditions: cells treated with 1-10 μM peptide, IL-1β stimulation
T4 construct: endogenous in cells; host or cells: HIG-82 rabbit fibroblast-like synoviocytes (ATCC CRL-1832)
T4 sequence (P41246 107-707): as above
Description: as §2, §3, §4

## CC[C@H](C)[C@H](NC(=O)[C@H](CC(=O)O)NC(=O)[C@@H](N)C(C)C)C(=O)N[C@@H](Cc1c[nH]cn1)C(=O)N[C@H](C(=O)N[C@@H](Cc1c[nH]c2ccccc12)C(=O)N[C@@H](CC(=O)O)C(=O)NCC(=O)N[C@H](C(=O)N[C@H](C(=O)N[C@@H](CC(=O)O)C(=O)N[C@H](C(=O)N[C@@H](Cc1c[nH]cn1)C(=O)N[C@H](C(=O)N[C@@H](Cc1c[nH]c2ccccc12)C(=O)N[C@@H](CC(=O)O)C(=O)NCC(=O)N[C@H](C(=O)O)C(C)C)C(C)C)[C@@H](C)CC)C(C)C)C(C)C)C(C)C [PIP [59-67] dimer] (H-VDIHVWDGVVDIHVWDGV-OH; N-terminus and C-terminus assumed)
[1]
  IC50: 7.75 ± 1.11 µM
[2]
  MMP-2 gelatinase activity vs control: insignificant
[3]
  MMP-9 gelatinase activity vs control: insignificant
[4]
  activity of secreted MMP-2: failed to inhibit
[4]; listed as dimerized peptide
  activity of secreted MMP-2: less marked
[5]
  activity of secreted MMP-9: failed to inhibit
[5]; listed as dimerized peptide
  activity of secreted MMP-9: less marked
